In US20230339874A1, “PIPERAZINYL COMPOUNDS AND METHODS FOR TREATING NEMATODE INFECTIONS” (The Governing Council of the University of Toronto, priority 2020, published 2023):
Like-named read-outs stand apart in the source and are kept apart here.

What was measured:
[1] = tested on: Danio rerio (zebrafish) embryos; assay: Danio rerio (zebrafish) embryo abnormal developmental phenotype; type: in vivo
[2] = tested on: Pristionchus pacificus young adult animals; assay: Pristionchus pacificus young adult abnormal locomotory behaviour on solid agar; type: in vivo; settings: read-out: P. pacificus, young adult 1 h any phene at 1 h (EC50 (μM))
C. elegans L3 larvae = C. elegans L3 larvae abnormal locomotory behaviour on solid agar; settings: solid agar MYOB + E. coli OP50, mean of 4 replicates; for % C. elegans L3 larvae any phene 1 h (conc.): 1 h exposure; for % C. elegans L3 larvae any phene 6 h (conc.): 6 h exposure; for % C. elegans L3 larvae any phene 24 h (conc.): 24 h exposure
Protocol: 20 animals were scored after either 1, 6 or 24 hours of exposure to drug (as indicated) per replicate. […] Data are reported as the mean % of animals with abnormal phenotype over 4 independent replicates.

[3] = 1 day post fertilization embryos through 48 h of development, tested at 15 and 3.75 μM, select compounds at 60 and 30 μM, read-out: D. rerio (zebrafish) any phenotype EC50
[4] = 1 h exposure, tested at 3.75, 15 and 60 μM, NA = not active, no phenotype at 60 μM
[5] = read-out: D. rerio (zebrafish) any phenotype EC50 (μM)

SMILES	EC50 [1, 3] [µM]	EC50 [2, 4] [µM]	% C. elegans L3 larvae any phene 1 h (conc.) (C. elegans L3 larvae; 3.75 uM) [%]	% C. elegans L3 larvae any phene 6 h (conc.) (C. elegans L3 larvae; 3.75 uM) [%]	% C. elegans L3 larvae any phene 24 h (conc.) (C. elegans L3 larvae; 3.75 uM) [%]	% C. elegans L3 larvae any phene 1 h (conc.) (C. elegans L3 larvae; 15 uM) [%]	% C. elegans L3 larvae any phene 6 h (conc.) (C. elegans L3 larvae; 15 uM) [%]	% C. elegans L3 larvae any phene 24 h (conc.) (C. elegans L3 larvae; 15 uM) [%]	% C. elegans L3 larvae any phene 1 h (conc.) (C. elegans L3 larvae; 60 uM) [%]	% C. elegans L3 larvae any phene 6 h (conc.) (C. elegans L3 larvae; 60 uM) [%]	% C. elegans L3 larvae any phene 24 h (conc.) (C. elegans L3 larvae; 60 uM) [%]	EC50 [1, 5] [µM]	EC50 ([2]; 1 h) [µM]
O=C(c1ccc([N+](=O)[O-])cc1)N1CCN(C2CCCC2)CC1 [III-d]	> 15	> 60	0.8	0.0	0.0	14.2	1.7	0.0	30.8	17.5	0.0		
c1cc(N2CCN(CC3CCC3)CC2)ccn1 [IV-b]			4.2	0.0	0.0	21.7	0.8	0.0	30.0	4.2	1.7	> 15	
O=C(C1CCCC1)N1CCN(c2ccc([N+](=O)[O-])cc2)CC1 [III-b]	7.8	> 60	0.0	0.0	0.0	0.0	0.0	0.0	9.2	8.3	0.0		
CCN1CCN(CC2CCCCC2)CC1 [I-a]			3.3	0.0	0.0	6.7	0.0	0.0	19.2	5.8	0.0	> 15	> 60
O=[N+]([O-])c1cccc(CN2CCN(C3CCCCC3)CC2)c1 [II-a]			0.8	0.0	0.0	0.0	0.0	0.0	6.7	2.5	0.0		> 60
c1cc(N2CCN(CC3CCCCC3)CC2)ccn1 [IV-a]			0.0	0.0	0.0	10.8	0.0	0.0	24.2	12.5	0.0	> 15	
O=C(C1CCC1)N1CCN(c2ccc(F)cc2)CC1 [III-c]	> 15	> 60	0.0	0.0	0.0	10.0	0.0	0.0	27.5	15.0	0.0		
O=[N+]([O-])c1ccc(CN2CCN(C3CCCC3)CC2)cc1 [II-b]			0.0	0.8	0.0	2.5	0.0	0.0	23.3	29.2	0.0		> 60
